# Patent US6808873B2, “Screening assays using intramitochondrial calcium” (MitoKor, Inc., priority 2000, dated 2004)
# Tests used:
# Ca^2+ uniporter [1] = target: T1, Ca^2+ uniporter (Homo sapiens, UniProt Q8NE86); assay: High-throughput uniporter assay of different compounds, permeabilized HepG2 cells with and without thapsigargin, FLIPR II; assay type: cell-based
# T1 construct: The effects of several intracellular Ca^2+ modulating agents (ICMAs) on permeabilized HepG2 cells were examined; endogenous in cells; host or cells: HepG2 (ATCC HB-8065), digitonin-permeabilized, in suspension
# T1 sequence (Q8NE86 51-351): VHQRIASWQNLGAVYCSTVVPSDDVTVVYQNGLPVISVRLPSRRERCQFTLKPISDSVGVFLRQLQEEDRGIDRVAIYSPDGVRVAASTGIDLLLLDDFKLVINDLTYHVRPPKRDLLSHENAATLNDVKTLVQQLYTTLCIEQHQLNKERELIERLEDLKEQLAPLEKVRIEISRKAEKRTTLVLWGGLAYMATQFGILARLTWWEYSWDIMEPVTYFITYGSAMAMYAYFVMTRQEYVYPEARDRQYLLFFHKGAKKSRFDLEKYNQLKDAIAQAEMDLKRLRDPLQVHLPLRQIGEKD
# T1 sequence (Q9H4I9 48-107 partner limits assumed): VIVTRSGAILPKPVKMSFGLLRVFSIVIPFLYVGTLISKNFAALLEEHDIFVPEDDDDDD
# From the text: The high-throughput uniporter assay protocol, carried out as described above for suspension cells, was used to determine the effect of different compounds on mitochondria and extramitochondrial Ca^2+ concentrations in the presence or absence of the Ca^2+ uptake inhibitor of the endoplasmic reticulum, thapsigargin (Calbiochem). Agents examined in this assay include calcium channel inhibitors, pro- and anti-oxidants, mitochondrial inhibitors and uncouplers, and the Ca—UP inhibitor Ru360. On the day of the assay, solutions of the respiratory/cell permeabilizing media containing digitonin with thapsigarin (MM-TD) and without thapsigarin (MM-D) were prepared as previously described. Calcium chloride was added to each to a final concentration of 6 micromolar Ca^2+, resulting in MM-TD, 6 uM Ca and MM-D, 6 uM Ca. A MM solution was prepared with a 10× Ca^2+ concentration of 200 micromolar for the second Ca^2+ pulse. The Ca^2+-uniporter inhibitor Ru360 was prepared at a 10× concentration of 100 microliters in MM. Ten times (10×) stock solutions of the other agents were prepared for the assay by the addition of the compounds to final concentrations of 10 micromolar into MM. […] Controls include water and 10% DMSO (Sigma) in MM.
# Cells of the HepG2 cell line (hepatocellular carcinoma, ATCC HB-8065) were trypsinized from near-confluent flasks in growth media (Eagle's MEM with non-essential amino acids, sodium pyruvate and Earle's BSS, 90%; FBS 10%). Cells were centrifuged, growth media was aspirated, and cells were resuspended to a concentration of 1×10^7 cells per milliliter in MM-TD, 6 uM Ca, or MM-D, 6 uM Ca. One hundred (100) microliters of the cell suspension (about 1×10^6 cells) were delivered to wells of a microtiter plate. The plate was placed in a FLIPR™ II (used in 96-well format) warmed to 37° C. An 11.1 microliter aliquot of the 10× stock solutions with water or DMSO (controls), Ru360 (Ca—UP inhibitor), or the test compounds, were dispensed into designated wells such that the assay concentration of DMSO is 0.1%, Ru360 is 10 micromolar, and each of the test compounds are at 1 micromolar concentrations. After an additional three minutes, a second addition of 12.3 microliters of the 10× CaCl2 (200 micromolar Ca^2+), was dispensed into the wells of the microtiter plate resulting in assay concentrations of 20 micromolar Ca^2 (Extramitochondrial Ca^2+ bound to the calcium indicator dye was monitored throughout and profiles of each assay; the results are presented in FIG. 12, with all thapsigargin minus (thaps−) assays in wells corresponding to columns 1-6 and thapsigargin plus (thaps+) assays in wells corresponding to columns 7-12.
# Ca^2+ uniporter [2] = target: T1, Ca^2+ uniporter; assay: Ca^2+ uniporter assay, digitonin-permeabilized suspended HepG2 cells, Calcium-Green-5N on FLIPR, ICMA added between two Ca^2+ pulses; assay type: cell-based; settings: 5 micrograms/milliliter oligomycin, 2 micromolar rotenone, 1 micromolar FCCP; for mitochondrial uptake of the second Ca^2+ pulse: second Ca^2+ pulse at about t=6 min, 1 micromolar RU360
# Method: A master mix solution (MM Solution) was prepared by the addition of glutamate and malate to final concentrations of 5 millimolar each, MgCl2 to a final concentration of 1 millimolar, EGTA to a final concentrations of 0 to 8 micromolar, and Calcium-Green-5N to a final concentration of 0.1 to 1.0 micromolar, to a basic KCl-based respiratory media (“BReM”) that is described in Table 3. […] The hexapotassiun salt Calcium-Green-5N (Molecular Probes, Eugene, Oreg.) in the MM Solution is a fluorescent dye that has low binding affinity to Ca^2+.
# Thapsigargin (Calbiochem, San Diego, Calif.), a Ca^2+ uptake inhibitor of the endoplasmic reticulum (ER), was added to the MM Solution to a final concentration of 1 micromolar to yield a solution designated “MM-T” (i.e., Master Mix with Thapsigargin).
# The cell membrane permeabilizing agent digitonin (Sigma, St. Louis, Mo.) was added to MM-T to a final concentration of from about 0.007% to about 0.03% to yield a solution referred to as “MM-TD” (i.e., Master Mix with Thapsigargin and digitonin. CaCl2 was added to MM-T to provide a solution with a determined final concentration of Ca^2+ for the determination of intracellular Ca^2+ flux.
# The effects of several intracellular Ca^2+ modulating agents (ICMAs) on permeabilized HepG2 cells were examined as follows. The mitochondrial respiratory inhibitors oligomycin (Calbiochem, San Diego, Calif.) and rotenone (Calbiochem) were added to MM-T to final concentrations of 50 micrograms/milliliter and 20 micromolar, respectively. The uncoupler FCCP was similarly added to MM-T to a 10× concentration (10 micromolar) to yield a stock solution of FCCP, MM-TF (i.e., Master Mix with Thapsigargin and FCCP). The ICMA Ru360, which blocks Ca^2+ uptake into the mitochondria by the calcium uniporter, was added to MM-T to a concentration of 100 micromolar to yield MM-T360 (i.e., Master Mix with Thapsigragin and Ru360). CaCl2 was added to MM-T to yield a 10× solution of CaCl2 (120 micromolar) in MM-T.
# HepG2 cells were cultured in Eagle's minimal essential medium (MEM) with non-essential amino acids, sodium pyruvate and Earle's balanced salt solution (BSS), 90%; fetal bovine serum (FBS), 10%. Cells were centrifuged (500×g) and the growth media was aspirated from the pellet. The HepG2 cells were resuspended in MM-TD at a concentration of 1×10^7 cells/milliliter, and 100 microliters of the resuspended permeabilized cells were dispensed into wells of a 96-well Costar 3603 microplate. The plate was placed into a FLIPR™ prewarmed to 37° C. MM-T, 120 micromolar Ca^2+, was dispensed into the cell-containing wells at a volume of 11.1 microliters, yielding a final assay concentration of 12 micromolar Ca^2+. The addition of Ca^2+ at this stage of the assay is referred to as the first calcium pulse and the time at which Ca^2+ is added is designated t=0.
# After about three minutes (i.e., at about t=3 min.), 12.3 microliters of one of the ICMA solutions were dispensed into wells containing permeabilized cells to yield final assay concentrations of 5 micrograms/milliliter oligomycin, 2 micromolar rotenone, 1 micromolar FCCP, 1 micromolar RU360, and MM-T (no ICMA).
# Cells were exposed to a second calcium pulse by the addition of 13.7 microliters of MM-T, 120 micromolar Ca^2+, to the cells after an additional 3 minutes (i.e., at about t=6 min.).
# [3] = test system: mitochondria permeability transition (MPT); assay: MPT modulation assay, digitonin-permeabilized MixCon cells, Ca-Green-5N, cuvette spectrofluorimeter; assay type: cell-based
# Method: An assay was performed in order to observe the transition induction effect on MPT by the MPT effector, diamide (a thiol oxidizing agent and pro-oxidant). The assay was performed in a digitonin-permeabilized cell line of mixed cybrids, MixCon in the presence of Ca^2+ and Ca-Green-5N and monitored in an LS50B Perkin Elmer Spectrofluorimeter, but is adaptable to the FLIPR system. Initially, ethacrynic acid was added to the MixCon cells in Dulbecco's modified Eagle's medium and 10% FBS, to a final concentration of 100 micromolar and preincubated for 5 minutes to remove the ability of cells to deal with oxidative stress making cells susceptible to the pro-oxidant. The cells were then centrifuged, growth media was aspirated, and cells resuspended, at 1.1×10^7 cells/milliliter, in 2 milliliters of respiratory media containing digitonin (MM-D) whereupon the digitonin (dig) permeabilizes the cells. The suspension was then transferred to a spectrofluorimetric cuvette. The cuvette was placed in the fluorimeter and 0.3 microliters of a 254 millimolar CaCl2 stock was added to the cuvette (final CaCl2 concentration of 40 micromolar). After approximately three minutes diamide was added to the cuvette to a final concentration of 500 micromolar].
# [4] = test system: mitochondria permeability transition (MPT); assay: MPT modulation assay, digitonin-permeabilized 293T cells, cuvette spectrofluorimeter; assay type: cell-based, human
# Method: The transition induction effect on MPT by the MPT effector, diamide (a thiol oxidizing agent and pro-oxidant) were performed with a second cell line, 293T. The 293T cells were suspended in 2 milliliters of growth media, DMEN and 10% FBS, with 100 micromolar of ethacrynic acid (1×10^7 cells/ml) and preincubated for 14 minutes to remove ability of cells to deal with oxidative stress making them susceptible to the pro-oxidant. The cells were centrifuged, media aspirated, resuspended in 2 milliliters of respiratory media containing digitonin (MM-D), and transferred into a cuvette. The digitonin (dig) in MM-TD permeabilizes the cells. The cuvette was placed in a LS50B Perkin Elmer Spectrofluorimeter and 40 micromolar CaCl2 in H2O was added into the suspension. After approximately three minutes 500 micromolar diamide was dispensed into the cuvette.
# [5] = test system: mitochondria permeability transition (MPT); assay: High-throughput MPT modulation assay, permeabilized HepG2 cells with and without thapsigargin, FLIPR 384; assay type: cell-based, human; settings: compounds 1 micromolar
# Method: HepG2 cells (hepatocellular carcinoma, ATCC HB-8065), in suspension, were used to determine the effect of these compounds on mitochondria Ca^2+ sequestration by monitoring extramitochondrial Ca^2+ concentrations in the presence or absence of the Ca^2+ uptake inhibitor of the endoplasmic reticulum, thapsigargin (Calbiochem, San Diego, Calif.). On the day of the assay solutions of the respiratory media containing digitonin with thapsigarin (MM-TD) and without thapsigarin (MM-D) were prepared as previously described. Calcium chloride was added to each to a final concentration of 6 micromolar Ca^2+, to yield MM-TD, 6 uM Ca, and MM-D, 6 uM Ca. Ten times (10×) stock solutions were prepared for the assay by the addition of each of the compounds to final concentrations of 10 micromolar in MM. Ten times (10×) solutions of CaCl2 was prepared in MM or MM-T to concentrations of 200 micromolar, for the second addition.
# The HepG2 cells were trypsinized from near-confluent flasks in growth media (Eagle's MEM with non-essential amino acids, sodium pyruvate and Earle's BSS, 90%; FBS 10%). Cells were centrifuged, media was aspirated, and the cells were resuspended to 1×10^7 cells per milliliter in MM-TD, 6 uM Ca and MM-D, 6 uM Ca, whereby Ca^2+ and the indicator dye enter the cells and Ca^2+ becomes sequestered in mitochondria. One hundred (100) microliters of the cell suspension was delivered to each well of a microtiter plate. The plate was placed in the FLIPR 384 warmed to 37° C. An 11.1 microliter volume of the 10× stock solutions with the test compounds were dispensed into designated wells such that the assay concentration are 1 micromolar. After a three minute interval, a Ca^2+ pulse of 20 micromolar was delivered by adding 12.3 microliters of the 10× CaCl2 solutions containing 200 micromolar Ca^2+.
# Ca^2+ uniporter [6] = test system: Ca^2+ uniporter
# Method: On the day of the assay a master mix solution (MM) was prepared by the addition of glutamate and malate from the stock solutions to final concentrations of 5 millimolar each, 1 millimolar MgCl2, and 0.5 micromolar Calcium-Green-5N (Molecular Probes, Eugene, Oreg.). The hexapotassium salt Calcium-Green-5N (Molecular Probes, Eugene, Oreg.) in the MM is a fluorescent dye that has low binding affinity to Ca^2+. The cell membrane permeabilizing agent digitonin (Sigma, St. Louis, Mo.) was added to MM to a final concentration of 0.007% to yield a solution designated MM-D. To this mixture CaCl2 was added to a final concentration of 6 micromolar Ca^2+ to yield a solution designated MM-D, 6 uM Ca. A 10× Ca^2+ stock solution was prepared by addition of CaCl2 to a final concentration of 200 micromolar in MM (no digitonin), and 10× solutions of FCCP were also prepared in MM to give concentrations of 0, 0.2, 0.4, 0.6, 0.8, 1.0, 2.0, 5.0, and 10.0 micromolar.
# HepG2 cells (human hepatocellular carcinoma, ATCC HB-8065) were trypsinized from near-confluent flasks in growth media, Eagle's minimum essential medium (MEM) with non-essential amino acids, sodium pyruvate and Earle's balanced salt solution (BSS), 90%; FBS 10%. Cells were centrifuged, growth media aspirated, and resuspended in the permeabilizing solution MM-D, 6 uM CaCl2. The concentration of cells was adjusted to 1×10^7 cells per milliliter in solution. One hundred (100) microliters of the cell suspension (1×10^6 cells) were delivered to the 96 well microtiter plate. […]
# A pulse of 12.3 microliters of the 10× stock CaCl2 solution was introduced into each of the wells of the microtiter plates after about four minutes. Emissions resulting from the binding of extramitochondrial Ca^2+ to the calcium indicator dye were monitored throughout the assay. […]
# The average of the changes of fluorescence for the assays (1-12) versus time course where FCCP was added at one minute, and calcium was pulsed into the assay media at approximately 4 minutes, were determined and graphed as a function of time (FIG. 11).
molecule,measurement,setting,value
"N#CC(C#N)=NNc1cccc(Cl)c1 [CCCP, carbonyl cyanide m-chlorophenyl-hydrazone]",fluorescence signal over the 3 minutes after compound addition (retention of the accumulated 6 micromolar Ca^2+),Ca^2+ uniporter [1]; test compounds 1 micromolar,release Ca^2+ from mitochondria
same,uniporter activity profile after the 20 micromolar Ca^2+ pulse,Ca^2+ uniporter [1]; test compounds 1 micromolar,prevent Ca^2+ uptake and retention by the mitochondria
Ru360,mitochondrial uptake of the second Ca^2+ pulse,Ca^2+ uniporter [2],prevented the uptake of Ca^2+ by the Ca Uniporter
same,uniporter activity profile after the 20 micromolar Ca^2+ pulse,Ca^2+ uniporter [1]; Ru360 10 micromolar,no uptake of Ca^2+ by the uniporter
"CN(C)C(=O)/N=N/C(=O)N(C)C [diamide, azodicarboxylic acid bis[dimethylamide]]",uniporter activity profile after the 20 micromolar Ca^2+ pulse,Ca^2+ uniporter [1]; test compounds 1 micromolar,uniporter non-inhibitory profile
same,fluorescence upon addition of diamide in the presence of CsA,[3]; diamide 500 micromolar with 10 micromolar CsA,only a slight increase in fluorescence
same,time until mitochondria released the sequestered Ca^2+ after diamide addition,"[3]; diamide 500 micromolar, cells preincubated with 100 micromolar ethacrynic acid, 40 micromolar CaCl2",≤ 6 min
same,time after which the rate of Ca^2+ release substantially increased,[4]; diamide 500 micromolar,about 7.5 minutes
same,Ca^2+ release from mitochondria after diamide addition,"[4]; diamide 500 micromolar, ethacrynic acid 100 micromolar preincubation 14 minutes, 40 micromolar CaCl2",immediately began to slowly release Ca^2+ to the medium
same,assay profile after the 20 micromolar Ca^2+ pulse,[5],sequestering of Ca^2+ by mitochondria after the Ca^2+ pulse
C=C1[C@@H]2CC[C@H]3[C@]4(C)C[C@H](O[C@@H]5O[C@H](CO)[C@@H](OS(=O)(=O)O)[C@H](OS(=O)(=O)O)[C@H]5OC(=O)CC(C)C)C[C@@H](C(=O)O)[C@H]4CC[C@]3(C2)[C@H]1O [atractyloside],fluorescence signal over the 3 minutes after compound addition (retention of the accumulated 6 micromolar Ca^2+),Ca^2+ uniporter [1]; test compounds 1 micromolar,slight indication of Ca^2+ release
same,assay profile after the 20 micromolar Ca^2+ pulse,[5],initial uptake of Ca^2+ into mitochondria with the slow release of the Ca^2+ into the cytosol
N=C(N)NC(=O)c1nc(Cl)c(N)nc1N [amiloride],uniporter activity profile after the 20 micromolar Ca^2+ pulse,Ca^2+ uniporter [1]; test compounds 1 micromolar,do not possess uniporter inhibitory activity
COc1ccc(Cl)cc1C(=O)NCCc1ccc(S(=O)(=O)NC(=O)NC2CCCCC2)cc1 [glyburide],uniporter activity profile after the 20 micromolar Ca^2+ pulse,Ca^2+ uniporter [1]; test compounds 1 micromolar,uniporter non-inhibitory profile
CO[C@H](C/C=C\C=C\CC/C=C/C[C@H](C)/C=C/C(=C\C(=O)O)CC(=O)O)/C(C)=C\C=C(/C)C(=O)O [bongkrekic acid],assay profile after the 20 micromolar Ca^2+ pulse,[5],normal mitochondria sequestration of Ca^2+
CC(=O)N[C@@H](CS)C(=O)O [N-acetylcysteine],uniporter activity profile after the 20 micromolar Ca^2+ pulse,Ca^2+ uniporter [1]; test compounds 1 micromolar,uniporter non-inhibitory profile
C[C@H](CCC(=O)O)C[C@H](C)C[C@H](C)C(=O)/C=C(\O)[C@H](C)C[C@H](C)C/C=C/[C@@H](C)[C@@H](O)[C@@H](C)[C@@H](O)C[C@@H]1CC[C@@](C)([C@H]2CC[C@@](C)([C@@H](C)O)O2)O1 [ionomycin],fluorescence signal over the 3 minutes after compound addition (retention of the accumulated 6 micromolar Ca^2+),Ca^2+ uniporter [1]; test compounds 1 micromolar,release Ca^2+ from cell stores
same,uniporter activity profile after the 20 micromolar Ca^2+ pulse,Ca^2+ uniporter [1]; test compounds 1 micromolar,prevent Ca^2+ uptake and retention by the mitochondria
CCC(C)N(C)C(=O)c1cc2ccccc2c(-c2ccccc2Cl)n1 (stereo not shown) [PK-11195],uniporter activity profile after the 20 micromolar Ca^2+ pulse,Ca^2+ uniporter [1]; test compounds 1 micromolar,uniporter non-inhibitory profile
CN1CCN(CCCN2c3ccccc3Sc3ccc(C(F)(F)F)cc32)CC1 [trifluoroperazine],uniporter activity profile after the 20 micromolar Ca^2+ pulse,Ca^2+ uniporter [1]; test compounds 1 micromolar,do not possess uniporter inhibitory activity
CN(CC(=O)O)C(=N)N [creatine],uniporter activity profile after the 20 micromolar Ca^2+ pulse,Ca^2+ uniporter [1]; test compounds 1 micromolar,uniporter non-inhibitory profile
COc1ccc([C@@H]2Sc3ccccc3N(CCN(C)C)C(=O)[C@@H]2OC(C)=O)cc1 [diltiazem],uniporter activity profile after the 20 micromolar Ca^2+ pulse,Ca^2+ uniporter [1]; test compounds 1 micromolar,do not possess uniporter inhibitory activity
"N#CC(C#N)=NNc1ccc(OC(F)(F)F)cc1 [FCCP, carbonyl cyanide p-(trifluoromethoxy)phenyl-hydrazone]",release of sequestered Ca^2+ from mitochondria after addition of the agent,"Ca^2+ uniporter [2]; added about 3 min after first 12 micromolar Ca^2+ pulse, thapsigargin present",caused the release of Ca^2+ from mitochondria into the cytosol
same,mitochondrial uptake of the second Ca^2+ pulse,Ca^2+ uniporter [2],could not sequester the added Ca^2+
same,further Ca^2+ release on addition of uncoupler after diamide,"[3]; FCCP 0.1 micromolar after 500 micromolar diamide, no CsA",no further release of Ca^2+ from the mitochondria
same,Ca^2+ release on addition of uncoupler in the presence of CsA and diamide,[3]; FCCP after diamide with 10 micromolar CsA,Ca^2+ released from the mitochondria
same,further Ca^2+ release on addition of uncoupler after diamide,[4]; FCCP 0.1 micromolar after 500 micromolar diamide,no increased level of fluorescence
same,effect on CaUP activity at the lowest concentrations,"Ca^2+ uniporter [6]; 0.02 or 0.04 uM FCCP, FCCP at 1 min, Ca^2+ pulse at about 4 min, FIG. 10",difficult to distinguish from the results obtained when no FCCP was present
same,"fluorescence upon addition of the agent, before the Ca^2+ pulse","Ca^2+ uniporter [6]; FCCP added at t=1 min to cells loaded with 6 micromolar Ca^2+, FIG. 11",fluorescence rises slightly
same,effect of the uncoupler on CaUP activity with decreasing concentration,"Ca^2+ uniporter [6]; FCCP from 1.0 uM to 0.02 uM, FIG. 10",decreases in a corresponding manner
O=C1CN(/N=C/c2ccc(-c3ccc([N+](=O)[O-])cc3)o2)C(O)=N1 [dantrolene],uniporter activity profile after the 20 micromolar Ca^2+ pulse,Ca^2+ uniporter [1]; test compounds 1 micromolar,uniporter non-inhibitory profile
